One substance from patent publication US20250025500A1, “PHOSPHATASE INHIBITORS AS NK CELLS MODULATORS FOR THE TREATMENT OF CANCER” (Kanyr Pharma Inc., priority 2021, published 2025) can be followed below.

Type in all cases: cell-based, Human
The test system of experiment [1] is NK-92 cells against K-562 cells. In words: NK-92 cytolytic assay against K-562 tumor target cells (flow cytometry). Here is the method: Human NK cell line NK-92 was purchased from American Type Culture Collection (ATCC) and cultured in α-MEM Essential Medium (no ribonucleoside and deoxyribonucleoside) supplemented with 0.2 mM Myo-inositol, 0.02 mM Folic Acid, 0.1 mM β-mercaptoethanol, 1% of Non-essential Amino Acids, 1×L-Glutamax, 1% of Penicillin/Streptomycin, 12.5% of heat-inactivated Horse, and 12.5% of heat-inactivated Characterized Fetal Bovine Serum or FBS. The media was supplemented freshly with 200 IU/mL of IL-2 upon cell thawing for one passage and 100 IU/mL of IL-2 for cell expansion. Human tumor cell lines K-562 and Reh were purchased from ATCC and were cultured in RPM11640 Medium supplemented with 1% of Penicillin/Streptomycin and 10% of heat inactivated FBS. HEK293T/17 cells and HCT116 cells were cultured in Dulbecco's Modified Eagle's Medium (DMEM) High Glucose Medium supplemented with 1% of Penicillin/Streptomycin and 10% of FBS. All cell lines were maintained in 5% CO2, 37° C. incubator, except that NK-92 were maintained in 6.5% CO2 incubator at 37° C. All cell lines were maintained below 30 passages and tested regularly for mycoplasma infection using PCR.
NK-92 anti-tumor cytolysis function was assessed by flow cytometry-based analysis. Tumor target cells K-562 and Reh were labelled with cell tracker CFSE ([…]) or CMRA (5 μM) according to manufacturer's protocol at a maximum of one day before cytolysis experiment. On the experiment day, labelled tumor target cells were washed once with PBS and resuspend to desired cell concentration in complete cell media. NK-92 cells were washed and resuspended in complete media without cytokines to desired cell concentration. NK-92 cells and tumor target cells were plated at various effector: target (E:T) ratios with basal cell numbers at 50,000 cells per well in round-bottom 96-well plate and were co-cultured for 3 hours in 5% CO2, 37° C. incubator. After co-culture, cells were washed once with ice-cold PBS and stained with fixable viability dyes: Aqua (Invitrogen™) or UV Blue (Invitrogen™) or eFluor 780 (eBioscience Invitrogen™) at 1:2000 in dark for 20 mins at 4° C. Stained cells were washed twice with ice cold PBS and were fixed with 1% Paraformaldehyde (PFA) for 1 hour or 2% PFA for 30 mins in dark at 4° C. Flow cytometry sample acquisition was performed with BDO LSRFortessa™ with a UV laser at Flow Cytometry Core Facility, McGill University, and data was analyzed with FlowJo™ 10.7.1 and summarized with Prism™ 9 (GraphPad™). Calculation for % of specific cytolysis was followed by the equation: […]
In general terms: In flow cytometry, cells or beads pass a laser one at a time.

Experiment [2] deals with NK-92 cells. Nature of the experiment: Multi-response analysis: cytokine production with degranulation in NK-92. Conditions: 30 μM three days, tumor cell or PMA and ionomycin stimulation. Here is the method: NK-92 cells pre-treated with L598 (30 μM) or vehicle control were stimulated with K-562 tumor target cells [effector: target (E:T) at 1:1] or PMA/lonomycin (1 μg/mL each) or no-stimulation control with K-562 complete media, respectively. Anti-CD107a or LAMP-1 antibody (1:100, PE/Cy7 conjugated, clone H4A3, from BioLegend®) was added to cells at the start of degranulation assay. Golgi stop (containing Monensin, 1 μM) and Golgi plug (containing Brefeldin A, 4 μg/mL) were added to cells one hour after degranulation assay started and were kept until the end of the 6-hour-degranulation assay. Intracellular staining of GrB (1:40, PE conjugated, clone QA18A28, from BioLegend®) and PRF (1:40, FITC conjugated, clone B-D48, from BioLegend®) were performed with the Fixation/Permeabilization Solution Kit (BD® Biosciences) according to the manufacture's protocol. Cells were stained with fixable viability dye (1:2000) for 20 mins on ice and in dark, and blocked with FcBlock (1:20, diluted in 1× Perm/Wash buffer, Human truStain FcX from BioLegend®) for 5 mins at room temperature and in dark before intracellular staining. Cell gating and percentage of population quantification was based on no-stimulation control. […] Intracellular cytolytic granule contents GrA, GrB and PRF were measured as mentioned previously.

Experiment [3] deals with NK-92 cells. Nature of the experiment: IFN-γ ELISA of NK-92 supernatants. Conditions: 30 μM three days, with or without K-562 (E:T 6:1), vs control. Here is the method:
Concentration of secreted IFN-γ in supernatants of NK-92 co-cultured with K-562 cells (E:T at 6:1) or no-stimulation control (K-562 cell media) for four hours was analyzed with Human IFN-γ ELISA Kit (R&D, DIF50) according to the manufacture's protocol. Results were normalized against IFN-γ secreted by K-562 alone treated with NK-92 cell media (no cytokine) for four hours.
On the technique in general: In an ELISA, binding on a coated surface is turned into a signal by an enzyme label.

For experiment [4], the system named is NK-92 cells. Nature of the experiment: NK-92 viability and proliferation under inhibitor treatment. Conditions: various IL-2 concentration, vs vehicle control.
The subject of experiment [5] is JAK/STAT signaling in NK-92 cells. Nature of the experiment: JAK/STAT signaling Western blot and IL-2 stimulation assay in NK-92. Here is the method: Total cell lysate was prepared with modified RIPA buffer (1M Tris-HCl (pH 7.5), 5M NaCl, 0.25% sodium deoxycholate, 10% NP-40 and 10 mM sodium fluoride) supplemented with ethylenediaminetetraacetic acid (EDTA)-free protease inhibitor (Roche™) and 2 mM sodium orthovanadate (Sigma-Aldrich™). Protein levels were quantified by bicinchoninic acid (BCA) assay. Protein lysate was separated by 10% SDS-PAGE and Western analysis was performed using primary antibodies listed in the tables below followed with horseradish peroxidase (HRP, 1:10,000, Jackson ImmunoResearch™) conjugated secondary antibodies.
For cytokine stimulation assay, NK-92 cells were pre-treated with L598 (30 μM) or vehicle control for three days. Before IL-2 stimulation, NK-92 cells were washed once with serum depleted cell media (no IL-2) and were starved for six hours in presence of L598 or vehicle control. After starvation, NK-92 cells were stimulated with IL-2 across a gradient concentration ranging from 0 to 90 IU/mL for 15 mins at 37° C. After incubation, cells were directly lysed with 2× concentrated TNE buffer and then boiled in 1× Laemmli Buffer to prepare cell lysates. Two independent experiments were performed.
In general terms: A western blot detects proteins with antibodies after separation by electrophoresis.

Experiment [6] has as its system NK-92 cells. Nature of the experiment: Surface receptor expression on NK-92 (flow cytometry).

As to “7-bromo-6-phosphono(difluoro-methyl)-3-napthalenonitrile [L598]”, the “NK-92 cytolysis against K-562 in presence of TGF-β1, vs vehicle control” value in experiment [1] (10 μM with TGF-β 10 ng/mL, IL-2 media, three days) was “continued exhibiting enhanced anti-tumor cytolysis”. For the same substance, the “cytolysis against K-562 after re-treatment” value in experiment [1] (additional two-days treatment at same concentration) is on record as “once more improved the anti-tumor cytolysis function to a similar level of the initial treatment”. In addition, the “tumor cytolysis by NK-92 against K-562 with inhibitor titration” value in experiment [1] (dosage increased up to 90 μM, three days, various E:T ratios) was “gradual increasing of tumor cytolysis”. In addition, the “enhanced cytolysis against K-562 after inhibitor withdrawal” value in experiment [1] (withdrawn for three days after initial 30 μM treatment) was “reversible”. Besides, the “percentages of CD107a+, IFN-γ+ and CD107a+, TNF-α+ cells” value with NK-92 cells [2] is recorded as “larger percentages”. Also, the IFN-γ protein secretion entry with NK-92 cells [3] is given as “significantly more”. Further, in the experiment with NK-92 cells [4], the NK-92 proliferation result is reported as “proliferate slightly faster”. The “sensitivity to low dosage short-term IL-2 stimulation (phospho-STAT1, 3, 4, 5)” value in experiment [5] (30 μM three days, starved six hours, IL-2 below 100 IU/mL, 15 mins) is given as “more sensitive”. Also, the “minimum IL-2 at which increased STAT5 phosphorylation is detectable” value in experiment [5] (IL-2 stimulation 15 mins after starvation) is listed as 30 IU/mL. Further, the “total protein expression of STAT members” value in experiment [5] (IL-2 stimulation assay) is recorded as “might upregulate”. The “phosphorylation of STAT1, STAT3 and STAT4 under TGF-β1 and IL-2” value in experiment [5] (TGF-β1 and IL-2 stimulation condition) is listed as “retained enhanced phosphorylation”. Also, the “basal phosphorylation of STAT1, STAT3 and STAT4” value in experiment [5] (after six-hours serum and cytokine starvation in presence of inhibitor) was “increased”. Further, the “phosphorylation of STAT2 and STAT6” value in experiment [5] (regular cell culture, inhibitor titration, three days) was “relatively stable”. For the same substance, the “phosphorylation of STAT1, STAT3, STAT4 and STAT5” value in experiment [5] (regular cell culture, inhibitor titration, three days, dosage dependent) is “increased phosphorylation”. For the same substance, in the experiment on NK-92 cells [6] (steady state, 10 μM), the “IL-2Rα (CD25) expression” value was “upregulated” and the “IL-2Rβ (CD122) expression” value is listed as “remained stable”. Also, the “CD69 and activating receptors NKp30, NKp46, NKG2D on NK-92” value with NK-92 cells [6] (with or without K-562 stimulation) is given as “upregulation”.
